{
  "source": "patent US12415789B2",
  "about": "“Macrocycles comprising a 4-amido-2,4-pentadienoate moiety for the treatment of hypoxic cancers” (Aarhus Universitet, priority 2019, dated 2025)",
  "key": {"[1]": {"assay": "Chemical stability measurements (UPLC-UV)", "details": "20 μM in sodium tetraborate buffer (pH 10) with 30% MeOH, 23° C., up to 9 hours", "experimental": "The stability of compounds under neutral or basic conditions were tested by dissolving compounds to 20 μM in PBS (pH 7.4) or sodium tetraborate buffer (pH 10) both mixed with 30% MeOH. The mixtures were shaken vigorously and injected immediately in the HPLC. The reactions were allowed to run at 23° C. for 9 hours and injections were performed once per hour. The concentrations of unreacted compounds were determined by UPLC-UV (Agilent 1260 infinity II) at 262 nm by injecting 5 μL on a PFP column (Poroshell 120 PFP, 3.0×100 mm, 2.7 micron). The compounds were eluted by a 1 mL/minute-gradient of acetonitrile in H2O from 5% to 95% over 8 minutes, then 95% for 1 minute and then 5% acetonitrile in H2O in 30 seconds."}, "HCT116 cells": {"tested_on": "HCT116 cells", "assay": "Viability assay (CellTiter Blue), HCT116 cells, hypoxia vs normoxia", "assay_type": "cell-based, human", "protocol": "(§1) PANC-1 and HaCat cells (PANC-1: RRID:CVCL 0480, taken from a person, HaCat: RRID:CVCL 0038) were cultured in DMEM (Gibco, Cat #: 21969-035) supplemented with FBS (10%, Gibco, Cat #: A31698-02), Penicillin/Streptomycin (1%, Sigma-Aldrich, Cat #: P0781), and Ala-Gln (200 μM, Sigma-Aldrich, Cat #: G8541). BxPC3 cells (RRID:CVCL 0186, taken from a person) were cultured in RPMI 1640 (Gibco, Cat #: 61870-010) supplemented with FBS (10%) and Penicillin/Streptomycin (1%). U2OS (RRID:CVCL 0042) and HCT116 cells (RRID:CVCL 0291, ATCC CCL-247) were cultured in McCoy's 5A (Sigma cat. no. M9309) supplemented with FBS (10%) and Penicillin/Streptomycin (1%). Cells were grown under normoxic conditions in T75 flasks (Biolite, Thermo Scientific, Cat #: 130190) in a humidified atmosphere with 5% CO2 at 37° C. For hypoxic conditions cells were placed in a modular incubator chamber (MIC-101, Billups-Rothenberg) equipped with a 10-cm dish with milliQ water and flushed with CO2/N2 (5%/95%, BioNERT, AGA Cat #: 100466065) for 8 minutes at 20-25 L/minute. Cells were passaged approximately every third day by trypsination (Sigma-Aldrich, Cat #: T4049) followed by transfer of ⅕^th of the cells to a new flask. All cell cultures were handled aseptically in a laminar air flow bench and grown in sterile-filtered (Jetbiofil, Cat #: FPE204500) medium according to ATCC's recommendations. All human cell lines were correctly identified by short tandem repeat analysis and tested free of mycoplasma contamination by MycoAlert (Lonza, Cat #: LT07-218).\n(§2) Cells were seeded in black 96-well plates (2000 cells/well, 75 μL/well, ThermoFisher Scientific, Cat #: 137103) in complete medium. Subsequently, the cells were allowed to adhere to the substratum overnight. The next day, compounds were serially diluted in DMSO as 200× solutions. The 200× solutions of compounds were initially diluted in complete medium to 4× solutions containing 2% DMSO. Finally, the compounds were given to cells by the addition of 25 μL/well in triplicates resulting in 1× solutions of compounds in 100 μL/well. The cells were then incubated under either normoxia or hypoxia. 90 minutes before the end of the experiment, all cells were given CellTiter Blue (20 μL/well, Promega, Cat #: G8080) and reincubated under normoxia for the remaining time of the experiment. The viability of the cells was assessed by measuring fluorescence in a plate reader (ex/em: 552±10/598±10, Tecan Spark 10M). Data were normalized to the two lowest concentrations of compound and fitted to a 4-parameter nonlinear regression in Prism 7.04 for Windows, GraphPad Software, La Jolla Calif. USA. IC50 values were extrapolated as the X value at Y=50%. Results can be found in Table 1 and the corresponding dose-response curves seen in FIGS. 12 to 17 and in FIGS. 9 to 10."}, "PANC-1 cells": {"tested_on": "PANC-1 cells", "assay": "Viability assay (CellTiter Blue), PANC-1 cells, hypoxia vs normoxia", "assay_type": "cell-based, human", "protocol": "as §1, §2"}, "BxPC3 cells": {"tested_on": "BxPC3 cells", "assay": "Viability assay (CellTiter Blue), BxPC3 cells, hypoxia vs normoxia", "assay_type": "cell-based, human", "protocol": "as §1, §2"}, "tested cell lines": {"tested_on": "tested cell lines", "assay": "Viability assays, summary statements across the tested cell lines", "assay_type": "cell-based, human", "protocol": "as §1, with “Cells were passaged approximately every third day by trypsination (Sigma-Aldrich, Cat #: T4049) followed by transfer of ⅕^th of the cells to a new flask. All cell cultures were handled aseptically in a laminar air flow bench and grown in sterile-filtered (Jetbiofil, Cat #: FPE204500) medium according to ATCC's recommendations. All human cell lines were correctly identified by short tandem repeat analysis and tested free of mycoplasma contamination by MycoAlert (Lonza, Cat #: LT07-218).” left out\nCells were seeded in black 96-well plates (2000 cells/well, 75 μL/well, ThermoFisher Scientific, Cat #: 137103) in complete medium. […] The viability of the cells was assessed by measuring fluorescence in a plate reader (ex/em: 552±10/598±10, Tecan Spark 10M). […]"}},
  "note": "Like-named read-outs stand apart in the source and are kept apart here.",
  "data": [
    {"smiles": "C=C1/C=C/C(=O)N(C)CC(=O)N[C@@H]([C@H](O)C(N)=O)C(=O)OC([C@H](C)CCCCCC)[C@H](C)C(=O)N1", "note": "(some centres unmarked) [rakicidin D]", "values": [
      {"measurement": "chemical stability at elevated pH", "setting": "[1]", "result": "decreased stability"}
    ]},
    {"smiles": "C=C1/C=C/C(=O)N(C)CC(=O)N[C@@H](CCCCNC(=O)OC(C)(C)C)COc2cc(CCCCCCCCCCCC)ccc2C(=O)N1", "note": "[PH911, tert-butyl (S,E)-(4-(16-dodecyl-7-methyl-11-methylene-5,8,13-trioxo-2,3,4,5,6,7,8,11,12,13-decahydrobenzo[n][1]oxa[4,7,12]-triazacyclopentadecin-3-yl)butyl)carbamate]", "values": [
      {"measurement": "IC50", "setting": "HCT116 cells; HCT116, hypoxic conditions, read-out: IC50 (μM) [1]", "result": 0.73, "unit": "µM"},
      {"measurement": "Index [3] Selectivity index (IC50 [2]/IC50 [1])", "setting": "HCT116 cells; HCT116, normoxic IC50 / hypoxic IC50", "result": 4.2},
      {"measurement": "IC50", "setting": "HCT116 cells; HCT116, normoxic conditions, read-out: IC50 (μM) [2]", "result": 3, "unit": "µM"},
      {"measurement": "IC50", "setting": "PANC-1 cells; PANC1, hypoxic conditions, read-out: IC50 (μM) [1]", "result": 0.76, "unit": "µM"},
      {"measurement": "Index [3] Selectivity index (IC50 [2]/IC50 [1])", "setting": "PANC-1 cells; PANC1, normoxic IC50 / hypoxic IC50", "result": 8.1},
      {"measurement": "IC50", "setting": "PANC-1 cells; PANC1, normoxic conditions, read-out: IC50 (μM) [2]", "result": 6.2, "unit": "µM"},
      {"measurement": "IC50", "setting": "BxPC3 cells; BxPC3, hypoxic conditions, read-out: IC50 (μM) [1]", "result": 1.2, "unit": "µM"},
      {"measurement": "Index [3] Selectivity index (IC50 [2]/IC50 [1])", "setting": "BxPC3 cells; BxPC3, normoxic IC50 / hypoxic IC50", "result": 3.9},
      {"measurement": "IC50", "setting": "BxPC3 cells; BxPC3, normoxic conditions, read-out: IC50 (μM) [2]", "result": 4.7, "unit": "µM"},
      {"measurement": "selectivity indices", "setting": "tested cell lines", "result": "four to eight-fold"}
    ]}
  ]
}
